Reference: patent publication US12310973B2, “Administration and dosage of diaminophenothiazines” (WisTa Laboratories Ltd., priority 2016, dated 2025)

Tested on: mild to moderate AD patients
Experiment: Phase 3 trial in mild to moderate AD: safety outcomes (adverse events)
Format: in vivo, human
Protocol: Patients were monitored throughout for adverse events (AEs) and clinical laboratory testing, physical and neurological examinations and 12-lead electrocardiograms were performed at all clinic visits (screening, baseline and Weeks 2, 6, 13, 26, 39, 52, 65 and 69). Patients were also assessed at all visits for suicidal ideation and intent, and were systematically assessed for signs of serotonin toxicity.

[1] = high dose LMTM (75 or 125 mg b.i.d.)

**Q.** For `CN(C)c1ccc2c(c1)Sc1cc(N(C)C)ccc1N2` [LMTM, leuco-methythioninium bis(hydromethanesulfonate)], which “Other SUSARs, %” value (125 mg b.i.d. (n = 264)) is on record?
**A.** The value was “(1.5) %”.

**Q.** And the “Pollakiuria, % of patients” value (125 mg b.i.d. (n = 264))?
**A.** Its value is “(6.8%)”.

**Q.** What about the “Pollakiuria, number of patients” value (125 mg b.i.d. (n = 264)) of the same compound?
**A.** Its value is 18.

**Q.** And the “Renal and urinary disorders, % of patients” value (125 mg b.i.d. (n = 264))?
**A.** The value was “(24.6%)”.

**Q.** What about the “Renal and urinary disorders, number of patients” value (125 mg b.i.d. (n = 264)) of the same compound?
**A.** Its value is 65.

**Q.** And the “Respiratory, thoracic and mediastinal disorders, % of patients” value (125 mg b.i.d. (n = 264))?
**A.** The value was “(8.3%)”.

**Q.** What about the “Respiratory, thoracic and mediastinal disorders, number of patients” value (125 mg b.i.d. (n = 264)) of the same compound?
**A.** The value was 22.

**Q.** What about the “Urinary incontinence, % of patients” value (125 mg b.i.d. (n = 264)) of the same compound?
**A.** Its value is “(4.5%)”.

**Q.** And the “Urinary incontinence, number of patients” value (125 mg b.i.d. (n = 264))?
**A.** The value was 12.

**Q.** What about the “Urinary tract infection, % of patients” value (125 mg b.i.d. (n = 264)) of the same compound?
**A.** The value was “(9.8%)”.

**Q.** And the “Urinary tract infection, number of patients” value (125 mg b.i.d. (n = 264))?
**A.** The value was 26.

**Q.** And the “Vomiting, % of patients” value (125 mg b.i.d. (n = 264))?
**A.** Its value is “(6.8%)”.

**Q.** What about the “Vomiting, number of patients” value (125 mg b.i.d. (n = 264)) of the same compound?
**A.** Its value is 18.

**Q.** And the “Maximum mean change in haemoglobin from baseline” value (125 mg b.i.d., at 6 weeks)?
**A.** The value was -0.93 g/L.

**Q.** And the “Non-fatal SAEs possibly related to treatment” value (% of the cases, all arms)?
**A.** The value was 14%.

**Q.** And the “Patients with transient responses indicating a wish to be dead (Columbia Suicide Severity Rating Scale)” value (all arms)?
**A.** Its value is 26 patients.

**Q.** And the “Patients with one or more other non-fatal serious adverse events (SAEs)” value (all arms, evenly distributed between the three treatment groups)?
**A.** Its value is 97 patients.

**Q.** And the “Patients who developed ARIA during the study, frequency” value (all arms, no dose relationship)?
**A.** The value was < 1%.

**Q.** What about the “Patients who developed ARIA during the study, total” value (all arms, no dose relationship) of the same compound?
**A.** The value was 8 patients.

**Q.** What about the “Patients who died during the study” value (all arms, none related to treatment) of the same compound?
**A.** Its value is 9 patients.

**Q.** And the Haemolytic anemia cases (all doses)?
**A.** Its Haemolytic anemia cases is “no case of haemolytic anemia”.

**Q.** What about the “Patients with transient symptoms consistent with serotonergic excess” value (both treated with LMTM 75 mg b.i.d., no concomitant serotonergic drug) of the same compound?
**A.** Its value is 2 patients.

**Q.** What about the “AESI: ARIA, %” value (control 4 mg b.i.d. (n = 354)) of the same compound?
**A.** Its value is “(0.8) %”.

**Q.** What about the “AESI: Methemoglobinemia, hemolytic anemia, and/or Heinz bodies, %” value (control 4 mg b.i.d. (n = 354)) of the same compound?
**A.** The value was “(0.3) %”.

**Q.** And the “AESI: “Serotonin syndrome”, %” value (control 4 mg b.i.d. (n = 354))?
**A.** Its value is “(0) %”.

**Q.** What about the “Anemia, % of patients” value (control 4 mg b.i.d. (n = 354)) of the same compound?
**A.** Its value is “(2.8%)”.

**Q.** And the “Anemia, number of patients” value (control 4 mg b.i.d. (n = 354))?
**A.** The value was 10.

**Q.** What about the “At least one TEAE, % of patients” value (control 4 mg b.i.d. (n = 354)) of the same compound?
**A.** Its value is “(83.6%)”.

**Q.** And the “At least one TEAE, number of patients” value (control 4 mg b.i.d. (n = 354))?
**A.** The value was 296.

**Q.** What about the “Blood and lymphatic system disorders, % of patients” value (control 4 mg b.i.d. (n = 354)) of the same compound?
**A.** Its value is “(4.8%)”.

**Q.** What about the “Blood and lymphatic system disorders, number of patients” value (control 4 mg b.i.d. (n = 354)) of the same compound?
**A.** The value was 17.

**Q.** And the “Blood folate decreased, % of patients” value (control 4 mg b.i.d. (n = 354))?
**A.** Its value is “(5.9%)”.

**Q.** What about the “Blood folate decreased, number of patients” value (control 4 mg b.i.d. (n = 354)) of the same compound?
**A.** The value was 21.

**Q.** What about the “Cough, % of patients” value (control 4 mg b.i.d. (n = 354)) of the same compound?
**A.** Its value is “(3.4%)”.

**Q.** What about the “Cough, number of patients” value (control 4 mg b.i.d. (n = 354)) of the same compound?
**A.** Its value is 12.

**Q.** And the “Deaths, %” value (control 4 mg b.i.d. (n = 354))?
**A.** Its value is “(0.8) %”.

**Q.** And the “Diarrhea, % of patients” value (control 4 mg b.i.d. (n = 354))?
**A.** The value was “(9.3%)”.

**Q.** And the “Diarrhea, number of patients” value (control 4 mg b.i.d. (n = 354))?
**A.** Its value is 33.

**Q.** What about the “Dysuria, % of patients” value (control 4 mg b.i.d. (n = 354)) of the same compound?
**A.** The value was “(0.8%)”.

**Q.** And the “Dysuria, number of patients” value (control 4 mg b.i.d. (n = 354))?
**A.** Its value is 3.

**Q.** And the “Gastrointestinal disorders, % of patients” value (control 4 mg b.i.d. (n = 354))?
**A.** The value was “(24.6%)”.

**Q.** What about the “Gastrointestinal disorders, number of patients” value (control 4 mg b.i.d. (n = 354)) of the same compound?
**A.** Its value is 87.

**Q.** And the “Infections and infestations, % of patients” value (control 4 mg b.i.d. (n = 354))?
**A.** The value was “(24.9%)”.

**Q.** What about the “Infections and infestations, number of patients” value (control 4 mg b.i.d. (n = 354)) of the same compound?
**A.** Its value is 88.

**Q.** And the “Investigations, % of patients” value (control 4 mg b.i.d. (n = 354))?
**A.** The value was “(22.6%)”.

**Q.** What about the “Investigations, number of patients” value (control 4 mg b.i.d. (n = 354)) of the same compound?
**A.** The value was 80.

**Q.** What about the “Nausea, % of patients” value (control 4 mg b.i.d. (n = 354)) of the same compound?
**A.** The value was “(4.0%)”.

**Q.** And the “Nausea, number of patients” value (control 4 mg b.i.d. (n = 354))?
**A.** The value was 14.

**Q.** What about the “Other SUSARs, %” value (control 4 mg b.i.d. (n = 354)) of the same compound?
**A.** The value was “(0.6) %”.

**Q.** And the “Pollakiuria, % of patients” value (control 4 mg b.i.d. (n = 354))?
**A.** Its value is “(1.7%)”.

**Q.** And the “Pollakiuria, number of patients” value (control 4 mg b.i.d. (n = 354))?
**A.** Its value is 6.

**Q.** And the “Renal and urinary disorders, % of patients” value (control 4 mg b.i.d. (n = 354))?
**A.** Its value is “(8.2%)”.

**Q.** What about the “Renal and urinary disorders, number of patients” value (control 4 mg b.i.d. (n = 354)) of the same compound?
**A.** The value was 29.

**Q.** And the “Respiratory, thoracic and mediastinal disorders, % of patients” value (control 4 mg b.i.d. (n = 354))?
**A.** The value was “(7.9%)”.

**Q.** What about the “Respiratory, thoracic and mediastinal disorders, number of patients” value (control 4 mg b.i.d. (n = 354)) of the same compound?
**A.** Its value is 28.

**Q.** What about the “Urinary incontinence, % of patients” value (control 4 mg b.i.d. (n = 354)) of the same compound?
**A.** The value was “(2.5%)”.

**Q.** And the “Urinary incontinence, number of patients” value (control 4 mg b.i.d. (n = 354))?
**A.** The value was 9.

**Q.** What about the “Urinary tract infection, % of patients” value (control 4 mg b.i.d. (n = 354)) of the same compound?
**A.** Its value is “(8.2%)”.

**Q.** What about the “Urinary tract infection, number of patients” value (control 4 mg b.i.d. (n = 354)) of the same compound?
**A.** The value was 29.

**Q.** What about the “Vomiting, % of patients” value (control 4 mg b.i.d. (n = 354)) of the same compound?
**A.** The value was “(0.6%)”.

**Q.** What about the “Vomiting, number of patients” value (control 4 mg b.i.d. (n = 354)) of the same compound?
**A.** Its value is 2.

**Q.** And the “Patients with anaemia-related adverse event terms (grouped)” value (control (4 mg b.i.d.))?
**A.** Its value is 16%.

**Q.** And the “Convulsion (SAE possibly related to treatment), cases” value (control arm (4 mg b.i.d.))?
**A.** Its value is 4.

**Q.** And the “Patients discontinuing for gastrointestinal or urinary adverse events” value (control patients (4 mg b.i.d.))?
**A.** The value was 1-2%.

**Q.** What about the “Patients with anaemia-related adverse event terms (grouped)” value (high dose LMTM) of the same compound?
**A.** Its value is 22%.

**Q.** And the “Patients discontinuing for gastrointestinal adverse events” value [1]?
**A.** The value was 9%.

**Q.** And the “Patients discontinuing for urinary tract adverse events” value [1]?
**A.** Its value is 3%.

**Q.** And the “Incidence of gastrointestinal adverse events with co-medication” value (patients also receiving acetylcholinesterase inhibitors (data not shown))?
**A.** The value was “about two-fold higher”.
